Consider 18 compounds from ChEMBL document CHEMBL2331227, “Khayseneganins A-H, limonoids from Khaya senegalensis” (2013).

Holding throughout (assay type): functional
In test [1] the test system is Staphylococcus aureus. Put plainly: Antimicrobial activity against Staphylococcus aureus ATCC 25923 by two-fold dilution method.
For test [2], the system named is Staphylococcus aureus. Briefly: Antimicrobial activity against methicillin-resistant Staphylococcus aureus isolate 98 by two-fold dilution method.
Test [3] deals with Staphylococcus aureus. Put plainly: Antimicrobial activity against methicillin-resistant Staphylococcus aureus isolate 92 by two-fold dilution method.
In test [4] the test system is Pseudomonas aeruginosa. Briefly: Antimicrobial activity against Pseudomonas aeruginosa ATCC 27853 by two-fold dilution method.

Converted amounts (≈) assume the structure as drawn. Where only a bound is given, the exact number is not on record here.

By MIC is commonly meant the least concentration at which growth counts as inhibited. A high value points to weaker potency. In the case of `CC(=O)O[C@@H]1C[C@H](O)[C@]2(C)[C@H]3CC[C@@]4(C)[C@@H](c5ccoc5)OC(=O)[C@H]5O[C@]54[C@]3(C)[C@H](OC(C)=O)C[C@H]2C1(C)C`, the MIC in test [1] was 25 µg/mL (≈ 45.9 µM); in test [2], 12.5 µg/mL (≈ 23 µM); in test [3], 25 µg/mL (≈ 45.9 µM); in test [4] it was 25 µg/mL (≈ 45.9 µM).
Consider `CC(=O)O[C@H]1C[C@@H](OC(C)=O)C(C)(C)[C@@H]2CC(=O)[C@]3(C)[C@H](CC[C@@]4(C)[C@@H](c5ccoc5)OC(=O)[C@H]5O[C@]543)[C@@]12C`, for which the MIC was found to be 50 µg/mL (≈ 92.1 µM) in test [1], 25 µg/mL (≈ 46.1 µM) in test [2], 50 µg/mL (≈ 92.1 µM) in test [3] and 25 µg/mL (≈ 46.1 µM) in test [4].
Take `COC(=O)C[C@H]1C(C)(C)[C@H](OC(C)=O)[C@]2(O)C=C3[C@H]([C@H](OC(C)=O)C[C@]4(C)[C@H]3CC(=O)O[C@H]4c3ccoc3)[C@@]1(C)C2=O`: the MIC in test [1], in test [2], in test [3] and in test [4] was 25 µg/mL (≈ 42.6 µM) in each case.
`COC(=O)C[C@H]1C(C)(C)[C@H](OC(C)=O)[C@@H]2C=C3[C@@H]4CC(=O)O[C@@H](c5ccoc5)[C@]4(C)CC[C@@H]3[C@@]1(C)C2=O`: the MIC in test [1] amounted to 25 µg/mL (≈ 48.8 µM); in test [2], 12.5 µg/mL (≈ 24.4 µM); in test [3] it was 12.5 µg/mL (≈ 24.4 µM); in test [4], 12.5 µg/mL (≈ 24.4 µM).
Regarding `CC(=O)O[C@H]1C[C@@H](O)C(C)(C)[C@@H]2C[C@@H](O)[C@]3(C)[C@H](CC[C@@]4(C)[C@@H](c5ccoc5)OC(=O)[C@H]5O[C@@]534)[C@@]12C`, the MIC in test [1], in test [2], in test [3] and in test [4] was greater than 50 µg/mL throughout.
Take `COC(=O)C[C@H]1[C@@]2(C)C[C@]3(O)O[C@@]4(CC(=O)[C@H]2O)[C@H]2CC(=O)O[C@@H](c5ccoc5)[C@]2(C)CC[C@@H]4[C@]13C`: the MIC in test [1], in test [2], in test [3] and in test [4] was greater than 50 µg/mL throughout.
On to `C=C1[C@@H]2CC[C@@]3(C)[C@H](c4ccoc4)OC(=O)C[C@]13O[C@H]1CC(=O)OC(C)(C)[C@H]([C@@H](O)C(=O)OC)[C@]12C` (relative stereo), for which the minimal inhibitory concentration (MIC) came to 50 µg/mL (≈ 99.5 µM) in test [1], 50 µg/mL (≈ 99.5 µM) in test [2], 25 µg/mL (≈ 49.7 µM) in test [3] and 25 µg/mL (≈ 49.7 µM) in test [4].
As for `COC(=O)[C@H](O)[C@H]1[C@]2(C)C[C@]3(OC(C)=O)[C@@H]4[C@@](OC)(O[C@]56CC(=O)O[C@@H](c7ccoc7)[C@]5(C)CC[C@H]([C@]13C)[C@@]46O)[C@H]2O` (relative stereo), the MIC in test [2] and in test [3] was greater than 50 µg/mL throughout.
Regarding `COC(=O)[C@H](O)[C@@H]1[C@@]2(C)[C@H]3CC[C@]4(C)C(=CC(=O)O[C@H]4c4ccoc4)[C@]3(O)[C@H]3[C@@H](O)C(=O)[C@@]1(C)C[C@]32OC(C)=O` (relative stereo), the MIC in test [1], in test [2], in test [3] and in test [4] was greater than 50 µg/mL in each case.
Take `CC(=O)O[C@H]1C[C@@H](O)C(C)(C)[C@@H]2C[C@@H](OC(C)=O)[C@]3(C)[C@H](CC[C@@]4(C)[C@@H](c5ccoc5)OC(=O)[C@H]5O[C@@]534)[C@@]12C` [3-DEACETYLKHIVORIN]: the MIC amounted to 25 µg/mL (≈ 45.9 µM) in test [1], 12.5 µg/mL (≈ 23 µM) in test [2], 12.5 µg/mL (≈ 23 µM) in test [3] and 12.5 µg/mL (≈ 23 µM) in test [4].
In the case of `COC(=O)[C@H](O)[C@H]1C(C)(C)C(=O)[C@@H]2C[C@]3(O)[C@@H]4CC(=O)O[C@@H](c5ccoc5)[C@]4(C)CC[C@@H]3[C@@]1(C)C2=O` [KHAYANONE], the MIC is 25 µg/mL (≈ 49.7 µM) in test [1], 25 µg/mL (≈ 49.7 µM) in test [2], 25 µg/mL (≈ 49.7 µM) in test [3] and greater than 50 µg/mL in test [4].
Regarding `C=C1[C@H]2CC[C@]3(C)[C@H](c4ccoc4)OC(=O)C[C@@]13O[C@H]1CC(=O)OC(C)(C)[C@@H](CC(=O)OC)[C@@]12C` [METHYL IVORENSATE], the MIC in test [1], in test [2], in test [3] and in test [4] was greater than 50 µg/mL in each case.
Regarding `CC1(C)C(=O)[C@@H]2C[C@@]34O[C@]2(O)[C@]2(COC(=O)C[C@@H]12)[C@H]3CC[C@]1(C)[C@H]4CC(=O)O[C@H]1c1ccoc1` [SENEGANOLIDE], the MIC in test [1], in test [2], in test [3] and in test [4] was greater than 50 µg/mL each time.
In the case of `COC(=O)[C@H](O)[C@H]1C(C)(C)[C@H](OC(C)=O)[C@@H]2CC3=C4CC(=O)O[C@@H](c5ccoc5)[C@]4(C)CC[C@@H]3[C@@]1(C)C2=O` [SWIETENOLIDE-3-ACETATE], the MIC in test [1], in test [2], in test [3] and in test [4] was 25 µg/mL (≈ 47.3 µM) each time.
In the case of `COC(=O)C[C@H]1C(C)(C)[C@H](OC(C)=O)[C@@H]2C=C3[C@H]([C@H](OC(C)=O)C[C@]4(C)[C@H]3CC(=O)O[C@H]4c3ccoc3)[C@@]1(C)C2=O` [SWIETMANIN B], the MIC was found to be 25 µg/mL (≈ 43.8 µM) in test [1], 12.5 µg/mL (≈ 21.9 µM) in test [2], 50 µg/mL (≈ 87.6 µM) in test [3] and 12.5 µg/mL (≈ 21.9 µM) in test [4].
In the case of `COC(=O)C[C@H]1C(C)(C)[C@H](O)[C@@H]2C=C3[C@H]([C@H](OC(C)=O)C[C@]4(C)[C@H]3CC(=O)O[C@H]4c3ccoc3)[C@@]1(C)C2=O` [Swietmanin C], the MIC in test [1], in test [2], in test [3] and in test [4] was greater than 50 µg/mL each time.
Take `CN[C@H](CC(C)C)C(=O)N[C@H]1C(=O)N[C@@H](CC(N)=O)C(=O)N[C@H]2C(=O)N[C@H]3C(=O)N[C@H](C(=O)N[C@H](C(=O)O)c4cc(O)cc(O)c4-c4cc3ccc4O)[C@H](O)c3ccc(c(Cl)c3)Oc3cc2cc(c3O[C@@H]2O[C@H](CO)[C@@H](O)[C@H](O)[C@H]2O[C@H]2C[C@](C)(N)[C@H](O)[C@H](C)O2)Oc2ccc(cc2Cl)[C@H]1O.Cl` [VANCOMYCIN HYDROCHLORIDE]: the MIC in test [1] came to 0.78 µg/mL; in test [2] it was 0.78 µg/mL; in test [3], 0.78 µg/mL; in test [4], 25 µg/mL.
For `COC(=O)[C@@H](OC(C)=O)[C@H]1C(C)(C)C(=O)[C@@H]2C=C3[C@@H]4CC(=O)O[C@@H](c5ccoc5)[C@]4(C)CC[C@@H]3[C@@]1(C)C2=O` [khayalenoid E], the minimum inhibitory concentration (MIC) in test [1], in test [2], in test [3] and in test [4] was 25 µg/mL (≈ 47.5 µM) in each case.
